In patent US20230210825A1, “METHODS AND COMPOSITIONS FOR TREATING SUBJECTS WITH METABOLIC DISORDERS AND CORONAVIRUS INFECTIONS” (CIRIUS THERAPEUTICS, INC., priority 2020, published 2023):

What was measured:
[1] = test system: cell functions and key regulatory proteins; assay: Impact of MSDC-0602K vs overnutrition on cell functions and key regulatory proteins (Table 1)
[2] = test system: mice on high trans-fat, fructose, cholesterol (HTF-C) diet; assay: Serum miRNA sequencing in HTF-C diet mice; assay type: in vivo; details: HTF-C diet containing 331 ppm MSDC-0602K after 4 or 16 weeks of plain HTF-C diet
Experimental: To begin evaluating the exosome cargo of MSDC-0602K-treated mice, WT mice were fed with either a low fat (LF) control diet (Research Diets D09100304) or high trans-fat, fructose, cholesterol (HTF-C) diet composed of 40% trans-fat, 20% fructose, 2% cholesterol (Research Diets D09100301). A subset of mice was fed plain HTF-C diet for 4 or 16 weeks, then switched to HTF-C diet that contained 331 ppm MSDC-0602K.
Total RNA was isolated from 400 μL of serum and small RNA sequencing was performed by adapter ligation, cDNA synthesis and size selection of 145-160 base pairs. Sequencing was then performed on an Illumina HiSeq3000.

[3] = test system: mice fed a diet enriched in trans fat, cholesterol and fructose; assay: Trans fat, cholesterol and fructose diet for 19 weeks: hepatic damage and fibrosis; assay type: in vivo
Experimental: Mice were fed a diet enriched in trans fat, cholesterol and fructose for 19 weeks to induce hepatic damage and metabolic dysfunction, which was assessed by histological changes in the NAS and fibrosis, measured by trichrome staining for collagen. MSDC-0602K (30 mg/kg) was given at either four weeks into the treatment or 16 weeks into the treatment as compared to the vehicle treated mice who were also on the modified diet. The results of mice who were kept on the normal diet are included for comparison. […] The signals for activation of the stellate cells and fibrosis are attenuated by treatment of the mice or isolated hepatocytes with MSDC-0602K.

[4] = test system: influenza virus A/PR/8/34 (H1N1) infected mice; assay: Influenza virus infection of C57BL/6 mice; assay type: in vivo; details: 30 mg/kg for 8 days
Experimental: As shown in the top panel of FIG. 13A, C57BL/6 mice were infected with the influenza virus A/PR/8/34 (H1N1; ˜200 pfu/mouse) and then dosed for 8 days with vehicle or 30 mg/kg MSDC-0602K. As shown in the bottom panel of FIG. 13A, body weight was measured daily as indication of the health of the mice and at day 14 the mice were sacrificed for examination of their blood and lung tissue. The mice were sacrificed on day 14. […] The MCP-1 production levels are decreased in mice treated with MSDC-0602K compared with mice with vehicle treatment. Similarly, the inflammatory monocyte numbers in the lungs are reduced in mice treated with MSDC-0602K compared with mice with vehicle treatment. FIG. 13 C is a representative histology with a calculation of the percent disrupted area. […] The levels of protein-B (sftbp) and ABCA3 protein (abca3) were increased in mice treated with MSDC-0602K compared with mice with vehicle treatment. On the other hand, the total protein levels in bronchoalveolar lavage were decreased in mice treated with MSDC-0602K compared with mice with vehicle treatment.

[5] = test system: subjects with biopsy proven non-alcoholic steatohepatitis (NASH) with fibrosis and no cirrhosis; assay: EMMINENCE Phase 2b clinical trial; assay type: in vivo, human
[6] = test system: diet-induced obese (60% HF diet) WT (fl/fl) and LS-MPC2−/− mice; assay: Single dose in diet-induced obese WT and LS-MPC2−/− mice (GTT, plasma insulin, ALT, liver qPCR); details: for glucose tolerance (GTT): 20 h after a single gavage of 30 mg/kg, vs vehicle
[7] = sacrificed day 14, vs vehicle (FIG. 13B)
[8] = 250 mg, N = 101, mean, baseline to 12-month endpoint

For `COc1cccc(C(=O)COc2ccc(CC3SC(=O)NC3=O)cc2)c1` (centres unmarked) [MSDC-0602K], the “Fatty acid oxidation (burning fat)” value [1] was “Increased”, the “HIF1α (transcription factor responding to oxygen)” value [1] was “Decreased” and the “Inflammation (ballooning due to injury)” value [1] was “Decreased”. For the same compound, the “Insulin sensitivity (cellular response to insulin)” value [1] was “Increased”, the “PPARγ, PPARα (transcription factors regulating fat metabolism and inflammation)” value [1] was “Increased” and the “SREBP (transcription factor regulating fat synthesis)” value [1] was “Decreased”. The “de novo lipid synthesis (making new fat)” value [1] was “Decreased”, the “mTORC1 (important nutrient sensor)” value [1] was “Decreased” and the “serum miRNAs altered by HTF-C diet” value [2] was “largely corrected”. For the same compound, the “signals for activation of the stellate cells and fibrosis” value ([3]; 30 mg/kg from week 4 or week 16 of a 19-week diet, mice or isolated hepatocytes) was “attenuated”, the “high fat, high cholesterol, high sugar diet-induced metabolic dysfunction” value ([3]; multiple animal models) was “protect against” and the “expression of ABCA3 protein (abca3) in the lungs” value ([4]; sacrificed day 14, vs vehicle) was “increased”. For the same compound, the “expression of surfactant protein-B (sftbp) in the lungs” value ([4]; sacrificed day 14, vs vehicle) was “increased”, the “MCP-1 (CCL2) production in the lungs” value [4, 7] was “decreased” and the “inflammatory monocyte numbers in the lungs” value [4, 7] was “reduced”. The “disrupted area in lung (histology)” value ([4]; sacrificed day 14, vs vehicle (FIG. 13C)) was “significantly reduced”, the “total protein levels in bronchoalveolar lavage (lung barrier leakage)” value ([4]; sacrificed day 14, vs vehicle (FIG. 13E)) was “decreased” and the “Leucine Change from Baseline” value ([5]; 62.5 mg, N = 99, mean, baseline to 12-month endpoint) was −6.74. The “Valine Change from Baseline” value ([5]; 125 mg, mean, baseline to 12-month endpoint) was −6.08, the “Isoleucine Visit 7” value ([5]; 250 mg, N = 101, mean, 12-month endpoint) was 56.15 and the “Leucine Change from Baseline” value [5, 8] was −10.55. For the same compound, the “TotalBCAA Change from Baseline” value [5, 8] was −37.80, the “Branched Chain Amino Acids (BCAA)” value ([5]; baseline to 12-month endpoint (Visit 7)) was “reduced” and the “glucose tolerance (GTT)” value ([6]; LS-MPC2−/− mice) was “no improvement in glucose tolerance”. The “plasma ALT and liver injury gene expression in LS-MPC2−/− mice” value ([6]; LS-MPC2−/− mice, acute treatment) was “refractory to the beneficial effects”, the “glucose tolerance (GTT)” value ([6]; WT mice) was “improved glucose tolerance” and the “plasma ALT concentrations” value ([6]; WT mice, single dose (FIG. 8A)) was “decreased plasma ALT concentrations”. The “gene expression for hepatic stellate cell activation and fibrotic scar formation” value ([6]; WT mice, single dose (FIG. 8B)) was “decreased gene expression” and the plasma insulin values ([6]; both WT and LS-MPC2−/− mice, single dose 30 mg/kg) was “decreased”.
